Laboratory results published in patent publication US20110028447A1, “INDAZOLE DERIVATIVES” (Pfizer Inc., priority 2008, published 2011).
Read-outs that look alike come from different tables or passages of the source.

What was measured:
human CB1 receptor [1] = target: T1, human CB1 receptor (Homo sapiens, UniProt P21554); assay: [35S] GTPγS binding on membranes of CHO cells expressing the human CB1 receptor (agonism); type: biochemical; parameters: expressed in transfected cells; membrane preparation
Experimental: Membrane preparation: CHO cells expressing the human CB1 receptor were grown to 80% confluence in Ham's F-12 Nutrient Medium (Invitrogen) containing 10% fetal bovine serum (Invitrogen), 1% pen/strep (Invitogen), 1% Nonessential amino acids (Invitrogen) and 500 μg/ml G418 (Invitrogen). Cells were released from flasks using Cell Dissociation Buffer (Invitrogen). Cells were pelleted by centrifugation at 500×G for 5 minutes. Membranes were prepared by resuspending cells in ice cold Assay Buffer (25 mM Tris pH 7.4, 5 mM EDTA, 5 mM EGTA, Complete Protease Inhibitor (Roche)). Cells were lysed with 12 strokes of a dounce homogenizer. Unlysed cells were pelleted by centrifugation at 500×G for 5 minutes. Membranes were pelleted by centrifugation at 25,000×G for 30 minutes. Membranes were resuspended in TEE, dounced 12 strokes, and pelleted a second time at 25,000×G for 30 minutes. Membrane pellet was resuspended in 50 mM Tris pH 7.4, 100 mM NaCl, 3 mM MgCl2, 0.2 mM EGTA, Complete Protease Inhibitor (Roche). Protein concentration was determined using the Micro-BCA Protein Assay Kit (Pierce) using BSA as a standard. Membranes were frozen and stored at −80 degrees Celsius until use.
GTPγS Binding: 40 μl of test compound was incubated with 20 μl of [^35S] GTPγS (Perkin Elmer) (1250 Ci/millimole) and 140 μl of membrane homogenate (5 μg/well) in polypropylene 96-well plates (Corning). Final reaction conditions were 50 mM Tris pH 7.4, 100 mM NaCl, 3 mM MgCl2, 0.2 mM EGTA, 0.04% BSA. After incubation at 37 degrees Celsius for 45 minutes reactions were harvested by vacuum filtration through Unifilter GF/B-96 filters (Perkin Elmer) using a FilterMate Plate Harvester (Perkin Elmer). Filters were rinsed 4 times with ice cold 50 mM Tris pH 7.4, 3 mM MgCl2, 0.2 mM EGTA and dried at 50 degrees Celsius for at least 30 minutes. 40 μl of Microscint-20 (Perkin Elmer) was added per well, and plates were counted using a Top-Count Microplate Scintillation Counter (Perkin Elmer). Binding data were analyzed and EC50 values were calculated using Graph Pad Prism 4.0 Software.

human CB1 receptor [2] = target: T1, human CB1 receptor; assay: Human CB1 receptor binding, [3H] CP-55,940 displacement on HEK cell membranes; parameters: expressed in transfected cells; host or cells: HEK cells, doxycycline-induced; membrane preparation
Summary of the method: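 Membranes from doxycycline-induced HEK cells expressing human CB1 incubated 60 min at room temperature with [3H] CP-55,940 (final […]) in 50 mM Tris pH 7.4, 100 mM NaCl, 3 mM MgCl2, 0.2 mM EGTA, 0.04% BSA. Nonspecific binding defined with 50 μM WIN-55,212-2; filtration and scintillation counting gave EC50 and Ki.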

[3] = GTPγS EC50, human CB1, CHO cell membranes
[4] = human CB1, CHO cell membranes, read-out: GTPγS EC50

T1 sequence (P21554 whole entry): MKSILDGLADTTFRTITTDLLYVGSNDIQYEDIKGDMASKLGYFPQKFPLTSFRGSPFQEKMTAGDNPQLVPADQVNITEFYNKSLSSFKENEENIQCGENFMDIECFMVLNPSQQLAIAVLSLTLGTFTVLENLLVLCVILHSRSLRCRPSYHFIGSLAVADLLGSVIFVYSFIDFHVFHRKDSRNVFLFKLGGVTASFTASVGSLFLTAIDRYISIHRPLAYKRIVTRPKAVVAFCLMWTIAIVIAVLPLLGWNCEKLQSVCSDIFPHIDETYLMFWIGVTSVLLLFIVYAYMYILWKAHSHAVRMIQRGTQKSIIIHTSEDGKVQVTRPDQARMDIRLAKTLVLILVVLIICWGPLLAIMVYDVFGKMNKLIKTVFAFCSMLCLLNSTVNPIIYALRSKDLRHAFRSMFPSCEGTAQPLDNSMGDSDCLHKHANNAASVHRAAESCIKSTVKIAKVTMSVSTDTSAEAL

Row | SMILES | EC50 (human CB1 receptor [1]; [3]) [nM] | Ki (human CB1 receptor [2]; CB1 Ki) [nM] | EC50 (human CB1 receptor [1]; [4]) [nM] | Ki (human CB1 receptor [2]; read-out: CB1 Ki) [nM]
1 | CC(C)(C)C(NC(=O)c1nn(Cc2ccc(F)cc2)c2ccccc12)C(=O)NCC(O)CO (centres unmarked) [Example 79] | 27.1 | 2.02 |  | 
2 | CC(C)(C)C(NC(=O)c1nn(Cc2ccc(F)cc2)c2ccccc12)C(=O)NC1CC1 (centres unmarked) [Example 80] | 1.82 | 0.21 |  | 
3 | CC(C)(C)C(NC(=O)c1nn(Cc2ccc(F)cc2)c2ccccc12)C(=O)NCCO (centres unmarked) [Example 81] | 0.98 | 0.32 |  | 
4 | CC(C)(C)C(NC(=O)c1nn(Cc2ccc(F)cc2)c2ccccc12)C(=O)NCC(N)=O (centres unmarked) [Example 82] | 22.1 | 1.12 |  | 
5 | CC(C)(C)C(NC(=O)c1nn(Cc2ccccc2)c2ccccc12)C(=O)NCCNC(N)=O (centres unmarked) [Example 83] | 720 | 15.3 |  | 
6 | CC(C)(C)C(NC(=O)c1nn(Cc2ccc(F)cc2)c2ccccc12)C(=O)NCCNC(N)=O (centres unmarked) [Example 85] | 16.1 | 1.72 |  | 
7 | CC(C)(C)C(NC(=O)c1nn(Cc2ccc(C#N)cc2F)c2ccccc12)C(N)=O (centres unmarked) [Example 86] | 34.2 | 2.75 |  | 
8 | CC(C)(C)C(NC(=O)c1nn(Cc2ccc(C#N)cc2F)c2ccccc12)C(=O)NC1CC1 (centres unmarked) [Example 87] | 46.1 | 2.26 |  | 
9 | CC(C)(C)C(NC(=O)c1nn(Cc2ccc(C#N)cc2F)c2ccccc12)c1nnc(NC(=O)C2CC2)o1 (centres unmarked) [Example 88] |  |  | 132 | 15.4
10 | CC(C)(C)C(NC(=O)c1nn(Cc2ccc(C#N)cc2F)c2ccccc12)C(=O)NCC(O)CO (centres unmarked) [Example 89] | 539 | 63.4 |  | 
11 | CC(C)(C)C(NC(=O)c1nn(Cc2ccc(C#N)cc2F)c2ccccc12)C(=O)NCC(O)CO (centres unmarked) [Example 90] | 385 | 27.4 |  | 
12 | CC(C)(C)C(NC(=O)c1nn(Cc2ccc(C#N)cc2F)c2ccccc12)C(=O)NCCO (centres unmarked) [Example 91] | 53.8 | 1.87 |  | 
13 | CC(C)(C)C(NC(=O)c1nn(Cc2ccc(C#N)cc2F)c2ccccc12)C(=O)NCC(N)=O (centres unmarked) [Example 92] | 265 | 14.1 |  | 
14 | CC(C)(C)C(NC(=O)c1nn(Cc2ccc(C#N)cc2F)c2ccccc12)C(=O)NCCCO (centres unmarked) [Example 93] | 41.8 | 14.3 |  | 
15 | CC(C)(C)C(NC(=O)c1nn(Cc2ccc(C#N)cc2F)c2ccccc12)C(=O)NCCNC(N)=O (centres unmarked) [Example 94] | 77 | 27.5 |  | 
16 | CC(C)(C)C(NC(=O)c1nn(Cc2ccc(C#N)cc2F)c2ccccc12)c1nnc(N)o1 (centres unmarked) [Example 95] |  |  | 13.7 | 2.22
17 | CC(C)(C)C(NC(=O)c1nn(Cc2ccccc2)c2ccccc12)C(=O)NCCNS(=O)(=O)C1CC1 (centres unmarked) [Example 96] |  |  | 16.9 | 1.18
18 | CC(C)(C)[C@H](NC(=O)c1nn(Cc2ccc(C#N)cc2)c2ccccc12)C(=O)NCCNS(=O)(=O)C1CC1 [Example 97] |  |  | 16.7 | 1.04
19 | CC(C)(C)[C@H](NC(=O)c1nn(Cc2ccc(C#N)cc2F)c2ccccc12)C(=O)NCCNS(=O)(=O)C1CC1 [Example 98] |  |  | 8.63 | 0.98
20 | CC(C)(C)[C@H](NC(=O)c1nn(Cc2ccc(F)cc2)c2ccccc12)C(=O)NCCNS(=O)(=O)C1CC1 [Example 99] |  |  | 0.5 | 0.18
21 | CC(C)(C)[C@H](NC(=O)c1nn(Cc2ccc(F)cc2)c2ccccc12)C(=O)NCCNC(=O)C1CC1 [Example 103] |  |  | 9.08 | 2.68
22 | CC(C)(C)[C@H](NC(=O)c1nn(Cc2ccc(C#N)cc2)c2c(F)cccc12)C(=O)NC1CC1 [Example 108] | 27 | 3.78 |  | 
23 | CC(C)(C)[C@H](NC(=O)c1nn(Cc2ccc(C#N)cc2)c2c(F)cccc12)C(=O)NCCCO [Example 109] | 110 | 8.14 |  | 
24 | CC(C)(C)[C@H](NC(=O)c1nn(Cc2ccc(C#N)cc2)c2c(F)cccc12)C(=O)NCC(N)=O [Example 110] | 237 | 28.9 |  | 
25 | CC(C)(C)[C@H](NC(=O)c1nn(Cc2ccc(C#N)cc2)c2c(F)cccc12)C(N)=O [Example 111] | 9.73 | 0.72 |  | 

Row | SMILES | EC50 (human CB1 receptor [1]; [3]) [nM] | Ki (human CB1 receptor [2]; CB1 Ki) [nM] | EC50 (human CB1 receptor [1]; [4]) [nM] | Ki (human CB1 receptor [2]; read-out: CB1 Ki) [nM]
26 | CC(C)(C)[C@H](NC(=O)c1nn(Cc2ccc(C#N)cc2)c2c(F)cccc12)c1nnc(N)o1 [Example 112] |  |  | 31.8 | 0.51
27 | CC(C)(C)[C@H](NC(=O)c1nn(Cc2ccc(C#N)cc2)c2c(F)cccc12)C(=O)NC[C@H](O)CO [Example 113] | 188 | 7.79 |  | 
28 | CC(C)(C)[C@H](NC(=O)c1nn(Cc2ccc(C#N)cc2)c2c(F)cccc12)C(=O)NCCNS(=O)(=O)C1CC1 [Example 115] |  |  | 8.72 | 1.09
29 | CC(C)(C)[C@H](NC(=O)c1nn(Cc2ccc(C#N)cc2)c2c(F)cccc12)C(=O)NCc1nnc(C(N)=O)o1 [Example 116] |  |  | 49.6 | 13.5
30 | CC(C)(C)[C@H](NC(=O)c1nn(Cc2ccc(C#N)cc2)c2c(F)cccc12)C(=O)NC(CO)CO [Example 117] | 168 | 9.54 |  | 
31 | CC(C)(C)C(NC(=O)c1nn(Cc2ccc(F)cc2)c2ccccc12)c1nnc(NC(N)=O)o1 (centres unmarked) [Example 118] |  |  | 23.8 | 0.7
32 | CC(C)(C)C(NC(=O)c1nn(Cc2ccc(F)cc2)c2ccccc12)c1nnc(CC(N)=O)o1 (centres unmarked) [Example 120] |  |  | 40 | 3.05
33 | CC(C)(C)C(NC(=O)c1nn(Cc2ccc(F)cc2)c2ccccc12)c1nnc(C(N)=O)o1 (centres unmarked) [Example 122] |  |  | 13.1 | 0.73
34 | Cc1nnc(CNC(=O)[C@@H](NC(=O)c2nn(Cc3ccc(F)cc3)c3ccccc23)C(C)(C)C)o1 [Example 126] | 2.55 | 0.97 |  | 
35 | Cc1nnc(CNC(=O)[C@@H](NC(=O)c2nn(Cc3ccc(C#N)cc3)c3ccccc23)C(C)(C)C)o1 [Example 127] | 136 | 32.8 |  | 
36 | CCOC(=O)c1nnc(CNC(=O)[C@@H](NC(=O)c2nn(Cc3ccc(F)cc3)c3ccccc23)C(C)(C)C)o1 [Example 128] |  |  | 3.58 | 0.97
37 | CCOC(=O)c1nnc(CNC(=O)[C@@H](NC(=O)c2nn(Cc3ccc(C#N)cc3)c3ccccc23)C(C)(C)C)o1 [Example 129] |  |  | 106 | 12.6
38 | CC(C)(C)C(NC(=O)c1nn(Cc2ccc(C#N)cc2)c2ccccc12)C(=O)NCc1nnc(C(N)=O)o1 (centres unmarked) [Example 130] |  |  | 72.7 | 14.7
39 | Cc1nc(CNC(=O)C(NC(=O)c2nn(Cc3ccc(F)cc3)c3ccccc23)C(C)(C)C)no1 (centres unmarked) [Example 131] | 13.2 | 0.6 |  | 
40 | CC(C)(C)C(NC(=O)c1nn(Cc2ccc(F)cc2)c2ccccc12)C(=O)N1CCC(O)CC1 (centres unmarked) [Example 133] | 6.35 | 0.55 |  | 
41 | CC(C)(C)C(NC(=O)c1nn(Cc2ccc(C#N)cc2)c2ccccc12)C(=O)N1CCC(O)CC1 (centres unmarked) [Example 134] | 326 | 32.7 |  | 
42 | CCOC(=O)c1nc(CNC(=O)C(NC(=O)c2nn(Cc3ccc(F)cc3)c3ccccc23)C(C)(C)C)no1 (centres unmarked) [Example 135] |  |  | 14.3 | 3.47
43 | CCOC(=O)c1nc(CNC(=O)C(NC(=O)c2nn(Cc3ccc(C#N)cc3)c3ccccc23)C(C)(C)C)no1 (centres unmarked) [Example 136] |  |  | 115 | 10.7
44 | CC(C)(C)C(NC(=O)c1nn(Cc2ccc(F)cc2)c2ccccc12)C(=O)NCc1noc(C(N)=O)n1 (centres unmarked) [Example 137] |  |  | 1.69 | 0.69
45 | Cc1noc(CNC(=O)C(NC(=O)c2nn(Cc3ccc(F)cc3)c3ccccc23)C(C)(C)C)n1 (centres unmarked) [Example 139] | 6.36 | 0.82 |  | 
46 | Cc1noc(CNC(=O)C(NC(=O)c2nn(Cc3ccc(C#N)cc3)c3ccccc23)C(C)(C)C)n1 (centres unmarked) [Example 140] | 645 | 39.3 |  | 
47 | CC(C)(C)C(NC(=O)c1nn(Cc2ccc(F)cc2)c2ccccc12)C(=O)NCCN1CCOCC1 (centres unmarked) [Example 141] |  |  | 41.1 | 9.42
48 | CC(C)(C)C(NC(=O)c1nn(Cc2ccc(F)cc2)c2ccccc12)C(=O)NCCc1nnc(C2CC2)o1 (centres unmarked) [Example 148] |  |  | 32.2 | 1.8
49 | CC(C)(C)C(NC(=O)c1nn(Cc2ccc(F)cc2)c2ccccc12)C(=O)N1CCC(O)C1 (centres unmarked) [Example 151] | 6.3 | 1.63 |  | 
